Data published in patent US20110212908A1, “TOPICAL COMPOSITIONS AND THE USE THEREOF” (priority 2005, published 2011).

Each compound was assayed on Pseudomonas (assay: Inhibition of adhesion of Pseudomonas strains P1, P2, P3 on canine corneocytes). Conditions: monosaccharides at 0.05% and 0.1% in PBS, vs positive control without monosaccharides (100%).
Type: cell-based
Procedure: A study comparing the inhibition, by monosaccharides, of the adhesion of three different strains of Pseudomonas, P1, P2, P3, was conducted on canine corneocytes. The three monosaccharides studied are respectively D-galactose, D-mannose and L-rhamnose.
The three strains of Psedomonas were taken from dogs with infectious otitis. Corneocytes were taken from six different healthy dogs using D-squame™-brand adhesive pads, sold by the CuDerm™ Company.
Bacterial suspensions were produced, each containing one of the three strains P1, P2 or P3, and PBS (phosphate-buffered saline) with or without monosaccharides at two concentrations (0.05% and 0.1%). These suspensions were each placed on a corneocyte layer. These layers were then incubated in a humidity chamber. After incubation, the corneocytes were washed and stained. The adherent Pseudomonas were then quantified by computer-assisted image analysis.
The percentage of adherence of the strains in the presence of monosaccharides was then calculated with respect to the percentage of adherence of the strains without monosaccharides (positive control).
The adherence percentages were compared for the three strains P1 to P3 with respect to the positive control (100%).

Compound | mean inhibition percentage for the three Pseudomonas strains
O=C[C@H](O)[C@@H](O)[C@@H](O)[C@H](O)CO [D-galactose] | 25.6%
O=C[C@@H](O)[C@@H](O)[C@H](O)[C@H](O)CO [D-mannose] | 19.4%
C[C@H](O)[C@H](O)[C@@H](O)[C@@H](O)C=O [L-rhamnose] | 30.8%
